Reference: PMC7827014, “Synthetic Transition from Thiourea-Based Compounds to Tetrazole Derivatives: Structure and Biological Evaluation of Synthesized New N-(Furan-2-ylmethyl)-1H-tetrazol-5-amine Derivatives” (Molecules, 2021)
Converted amounts (≈) assume the structure as drawn.

Tested on: M. tuberculosis INH resistant (Spec. 210)
Assay: In vitro antitubercular MIC
Format: cell-based
Conditions: Mycobacterium tuberculosis, read-out: Minimal inhibitory concentration

SMILES	MIC [µg/mL]
Fc1ccc(-n2nnnc2NCc2ccco2)cc1 [Compound 1, 1-(4-fluorophenyl)-N-(furan-2-ylmethyl)-1H-tetrazol-5-amine]	256 (≈ 987 µM)
Ic1ccc(-n2nnnc2NCc2ccco2)cc1 [Compound 3, N-(furan-2-ylmethyl)-1-(4-iodophenyl)-1H-tetrazol-5-amine]	512 (≈ 1390 µM)
Brc1cccc(-n2nnnc2NCc2ccco2)c1 [Compound 7, 1-(3-bromophenyl)-N-(furan-2-ylmethyl)-1H-tetrazol-5-amine]	256 (≈ 800 µM)
Fc1ccccc1-n1nnnc1NCc1ccco1 [Compound 6, 1-(2-fluorophenyl)-N-(furan-2-ylmethyl)-1H-tetrazol-5-amine]	256 (≈ 987 µM)
Clc1cccc(-n2nnnc2NCc2ccco2)c1 [Compound 4, 1-(3-chlorophenyl)-N-(furan-2-ylmethyl)-1H-tetrazol-5-amine]	256 (≈ 929 µM)
Cc1ccc(Cl)cc1-n1nnnc1NCc1ccco1 [Compound 2, 1-(5-chloro-2-methylphenyl)-N-(furan-2-ylmethyl)-1H-tetrazol-5-amine]	512 (≈ 1770 µM)
Clc1ccccc1-n1nnnc1NCc1ccco1 [Compound 11, 1-(2-chlorophenyl)-N-(furan-2-ylmethyl)-1H-tetrazol-5-amine]	256 (≈ 929 µM)
NNC(=O)c1ccncc1 [INH, isoniazid, reference compound]	2 (≈ 14.6 µM)
Brc1ccccc1-n1nnnc1NCc1ccco1 [Compound 12, 1-(2-bromophenyl)-N-(furan-2-ylmethyl)-1H-tetrazol-5-amine]	256 (≈ 800 µM)
Fc1cccc(-n2nnnc2NCc2ccco2)c1 [Compound 9, 1-(3-fluorophenyl)-N-(furan-2-ylmethyl)-1H-tetrazol-5-amine]	256 (≈ 987 µM)
Brc1ccc(-n2nnnc2NCc2ccco2)cc1 [Compound 10, 1-(4-bromophenyl)-N-(furan-2-ylmethyl)-1H-tetrazol-5-amine]	512 (≈ 1600 µM)
Clc1ccc(-n2nnnc2NCc2ccco2)cc1 [Compound 8, 1-(4-chlorophenyl)-N-(furan-2-ylmethyl)-1H-tetrazol-5-amine]	256 (≈ 929 µM)
Clc1ccc(-n2nnnc2NCc2ccco2)cc1Cl [Compound 5, 1-(3,4-dichlorophenyl)-N-(furan-2-ylmethyl)-1H-tetrazol-5-amine]	> 512
